Target: T1, Pparb (gmPparb) (Gadus morhua, UniProt A0A8C4ZA29)
T1 construct: gene PPARD
T1 sequence (A0A8C4ZA29 216-511 limits assumed): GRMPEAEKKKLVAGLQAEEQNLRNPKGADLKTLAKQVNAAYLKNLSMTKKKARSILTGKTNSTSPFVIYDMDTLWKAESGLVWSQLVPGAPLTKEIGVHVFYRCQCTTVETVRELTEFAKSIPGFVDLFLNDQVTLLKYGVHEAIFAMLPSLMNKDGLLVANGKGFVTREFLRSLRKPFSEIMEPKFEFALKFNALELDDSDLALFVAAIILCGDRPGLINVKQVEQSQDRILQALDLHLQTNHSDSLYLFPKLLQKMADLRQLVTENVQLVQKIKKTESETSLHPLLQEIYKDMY
Experiment: GAL4-LBD luciferase reporter gene assay in COS-7 cells
Assay type: cell-based

Cc1cc(SCc2sc(-c3ccc(C(F)(F)F)cc3)nc2C)ccc1OCC(=O)O [GW501516, 2-[2-Methyl-4-[[[4-methyl-2-[4-(trifluoromethyl)phenyl]-5-thiazolyl]methyl]thio]phenoxy]-acetic acid]
EC50: 5.9 µM

— article PMC10073473, “Integrative omics-analysis of lipid metabolism regulation by peroxisome proliferator-activated receptor a and b agonists in male Atlantic cod” (Frontiers in Physiology, 2023)
